Assay results from ChEMBL document CHEMBL3885861, “Open TG-GATES”.

Species on record: Rattus norvegicus
Assay: Open TG-GATES - Regimen: Single
Type: toxicity, organism-based, Sprague-Dawley
Design: regimen Single, gender Male, age 6 weeks
Details: in vivo, po, 80 mg/kg, route gavage, dose level Middle; for APTT / Bas / Eos / Fbg / Hb / Ht / Lym / MCH / MCHC / MCV / Mono / Neu / PT / Plat / RBC / Ret / WBC: tissue Blood; for KIDNEY_L / KIDNEY_R / KIDNEY_TOTAL: tissue Kidney; for LIVER: tissue Liver; for A/G / ALP / ALT / AST / BUN / CRE / Ca / Cl / DBIL / GLC / IP / K / LDH / Na / PL / RALB / TBIL / TC / TG / TP / gamma-GTP: tissue Plasma

## CCSCC[C@H](N)C(=O)O [ETHIONINE]
3 h
  TERMINAL_BW: 217.5 g
  APTT: 18.6 s
  Bas: 0%
  Eos: 1%
  Fbg: 209 mg/dL
  Hb: 13.4 g/dL
  Ht: 39.6%
  Lym: 77.8%
  MCH: 21.3 pg
  MCHC: 33.9%
  MCV: 62.7 fL
  Mono: 2.8%
  Neu: 17.6%
  PT: 12.4 s
  Plat: 119.9 x10_4/uL
  RBC: 631.4 x10_4/ul
  Ret: 6.8%
  WBC: 71.3 x10_2/uL
  KIDNEY_L: 1 g
  KIDNEY_R: 1 g
  KIDNEY_TOTAL: 1.9 g
  LIVER: 9.9 g
  A/G: 1.6
  ALP: 765.4 IU/L
  ALT: 33 IU/L
  AST: 62.8 IU/L
  BUN: 10.4 mg/dL
  CRE: 0.4 mg/dL
  Ca: 10.3 mg/dL
  Cl: 101.4 meq/L
  DBIL: 0.052 mg/dL
  GLC: 207.4 mg/dL
  IP: 10 mg/dL
  K: 3.8 meq/L
  LDH: 171.6 IU/L
  Na: 140.4 meq/L
  PL: 120.8 mg/dL
  RALB: 3.3 g/dL
  TBIL: 0.1 mg/dL
  TC: 68.2 mg/dL
  TG: 43.8 mg/dL
  TP: 5.4 g/dL
  gamma-GTP: 1.4 IU/L
6 h
  TERMINAL_BW: 212.9 g
  APTT: 18.2 s
  Bas: 0%
  Eos: 1%
  Fbg: 215 mg/dL
  Hb: 13.5 g/dL
  Ht: 39.6%
  Lym: 79.4%
  MCH: 21.4 pg
  MCHC: 34.1%
  MCV: 62.7 fL
  Mono: 2.2%
  Neu: 16.6%
  PT: 12.9 s
  Plat: 116.1 x10_4/uL
  RBC: 632 x10_4/ul
  Ret: 6.3%
  WBC: 88 x10_2/uL
  KIDNEY_L: 1 g
  KIDNEY_R: 1 g
  KIDNEY_TOTAL: 1.9 g
  LIVER: 9.2 g
  A/G: 1.7
  ALP: 877.2 IU/L
  ALT: 35.6 IU/L
  AST: 65.2 IU/L
  BUN: 10.6 mg/dL
  CRE: 0.3 mg/dL
  Ca: 10.3 mg/dL
  Cl: 102.6 meq/L
  DBIL: 0.058 mg/dL
  GLC: 207.4 mg/dL
  IP: 9.4 mg/dL
  K: 3.7 meq/L
  LDH: 191.2 IU/L
  Na: 140.4 meq/L
  PL: 116.6 mg/dL
  RALB: 3.3 g/dL
  TBIL: 0.1 mg/dL
  TC: 58.8 mg/dL
  TG: 54.2 mg/dL
  TP: 5.4 g/dL
  gamma-GTP: 1 IU/L
9 h
  TERMINAL_BW: 215.1 g
  APTT: 19.5 s
  Bas: 0%
  Eos: 1%
  Fbg: 205.4 mg/dL
  Hb: 13.3 g/dL
  Ht: 39%
  Lym: 76%
  MCH: 21 pg
  MCHC: 34.1%
  MCV: 61.4 fL
  Mono: 2.4%
  Neu: 19.4%
  PT: 13.1 s
  Plat: 117 x10_4/uL
  RBC: 634.6 x10_4/ul
  Ret: 6.7%
  WBC: 77.6 x10_2/uL
  KIDNEY_L: 1 g
  KIDNEY_R: 1 g
  KIDNEY_TOTAL: 1.9 g
  LIVER: 9.1 g
  A/G: 1.5
  ALP: 727 IU/L
  ALT: 28.8 IU/L
  AST: 54.8 IU/L
  BUN: 10.6 mg/dL
  CRE: 0.3 mg/dL
  Ca: 10.4 mg/dL
  Cl: 101.4 meq/L
  DBIL: 0.086 mg/dL
  GLC: 197.6 mg/dL
  IP: 9.7 mg/dL
  K: 3.6 meq/L
  LDH: 174.2 IU/L
  Na: 140.6 meq/L
  PL: 133 mg/dL
  RALB: 3.4 g/dL
  TBIL: 0.1 mg/dL
  TC: 70.4 mg/dL
  TG: 95.6 mg/dL
  TP: 5.6 g/dL
  gamma-GTP: 1.4 IU/L
24 h
  TERMINAL_BW: 227.7 g
  APTT: 20.7 s
  Bas: 0%
  Eos: 1%
  Fbg: 224 mg/dL
  Hb: 13.7 g/dL
  Ht: 40.7%
  Lym: 79.8%
  MCH: 21.1 pg
  MCHC: 33.7%
  MCV: 62.7 fL
  Mono: 3.6%
  Neu: 14%
  PT: 13.6 s
  Plat: 122.5 x10_4/uL
  RBC: 649.8 x10_4/ul
  Ret: 6.5%
  WBC: 97.9 x10_2/uL
  KIDNEY_L: 1 g
  KIDNEY_R: 1 g
  KIDNEY_TOTAL: 2.1 g
  LIVER: 11.3 g
  A/G: 1.5
  ALP: 1010.2 IU/L
  ALT: 37 IU/L
  AST: 69 IU/L
  BUN: 13.4 mg/dL
  CRE: 0.4 mg/dL
  Ca: 10.8 mg/dL
  Cl: 101.2 meq/L
  DBIL: 0.09 mg/dL
  GLC: 215.8 mg/dL
  IP: 8.8 mg/dL
  K: 3.8 meq/L
  LDH: 210.6 IU/L
  Na: 139.4 meq/L
  PL: 129.6 mg/dL
  RALB: 3.5 g/dL
  TBIL: 0.1 mg/dL
  TC: 57.6 mg/dL
  TG: 98.2 mg/dL
  TP: 5.8 g/dL
  gamma-GTP: 1 IU/L
